# Target: PdtaS (PdtaS-EGFP; mtPdtaS; Rv3220c) (Mycobacterium tuberculosis, UniProt P9WGL5)
# Assay: biochemical
# Sequence of PdtaS (PdtaS-EGFP; mtPdtaS; Rv3220c) (P9WGL5 whole entry): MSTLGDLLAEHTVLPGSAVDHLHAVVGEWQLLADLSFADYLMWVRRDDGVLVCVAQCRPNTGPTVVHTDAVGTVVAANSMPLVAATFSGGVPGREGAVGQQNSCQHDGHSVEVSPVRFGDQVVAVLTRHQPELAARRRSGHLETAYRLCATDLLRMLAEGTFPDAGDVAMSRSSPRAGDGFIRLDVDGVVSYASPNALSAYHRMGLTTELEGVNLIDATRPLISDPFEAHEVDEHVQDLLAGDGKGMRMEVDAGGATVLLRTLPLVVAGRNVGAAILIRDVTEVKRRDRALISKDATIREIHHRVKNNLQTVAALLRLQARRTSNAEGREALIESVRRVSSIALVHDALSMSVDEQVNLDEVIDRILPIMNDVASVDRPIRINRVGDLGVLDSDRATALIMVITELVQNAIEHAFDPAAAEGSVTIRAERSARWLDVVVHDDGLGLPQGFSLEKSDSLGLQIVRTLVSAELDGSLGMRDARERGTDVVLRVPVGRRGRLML
structure (smiles),measurement,value
Nc1nc2c(ncn2[C@@H]2O[C@@H]3CO[P@](=O)(O)O[C@H]4[C@@H](O)[C@H](n5cnc6c(=O)[nH]c(N)nc65)O[C@@H]4CO[P@](=O)(O)O[C@H]3[C@H]2O)c(=O)[nH]1 [c-di-GMP],Kd,326 ± 107 nM

# Source: paper doi:10.1101/615575v1 (biorxiv, 2019)
